≈ marks a conversion by molar mass, not a printed value.

The subject of assay [1] is Mtb KZN494. In words: microbe, parasite or virus in culture. Type of assay: cell-based. To be noted: Mycobacterium tuberculosis, KZN494, read-out: Mtb MIC KZN494/ MDR.
Assay [2] concerns Mtb TF274. In words: microbe, parasite or virus in culture. Type of assay: cell-based. Conditions: Mycobacterium tuberculosis, TF274, read-out: Mtb MIC TF274/ XDR.
In assay [3] the test system is mutant Mtb strain IAR2. It is filed as cell-based, Mycobacterium tuberculosis.

Turning to `c1ccc(-c2ccc(-c3ccnc(CN4CCC5(CCCC5)CC4)c3)cc2)cc1` [Compound 62, 8-((4-([1,1'-Biphenyl]-4-yl)pyridin-2-yl)methyl)-8-azaspiro[4.5]decane], the results for the MIC in assay [1] and in assay [2] were 0.0156 to 0.0313 µg/mL (≈ 0.0408 to 0.0818 µM) and 0.0039 µg/mL (≈ 0.0102 µM), respectively. In addition, in assay [3], the “MIC IAR2” value is 1 µg/mL (≈ 2.61 µM).

The record behind these values is paper PMC10239758 (European journal of medicinal chemistry, 2023).
